Species on record: Rattus norvegicus
Assay: DrugMatrix - Regimen: Daily Repeat
Assay type: toxicity, organism-based, Sprague-Dawley
Set-up: regimen Daily Repeat, gender Male, age 6-8 weeks
Conditions: in vivo, po, route oral GAVAGE, vehicle 100 % WATER; for ABSOLUTE BASOPHIL / ABSOLUTE EOSINOPHIL / ABSOLUTE LYMPHOCYTE / ABSOLUTE MONOCYTE / ABSOLUTE SEGMENTED NEUTROPHIL / BASOPHIL / EOSINOPHIL / ERYTHROCYTE COUNT / HEMATOCRIT / HEMOGLOBIN / LEUKOCYTE COUNT / LYMPHOCYTE / MEAN CORPUSCULAR HEMOGLOBIN / MEAN CORPUSCULAR HEMOGLOBIN CONCENTRATION / MEAN CORPUSCULAR VOLUME / MONOCYTE / NEUTROPHIL / NUCLEATED RED BLOOD CELLS / PLATELET COUNT: tissue Blood; for ALANINE AMINOTRANSFERASE / ALBUMIN / ALKALINE PHOSPHATASE / ASPARTATE AMINOTRANSFERASE / BLOOD UREA NITROGEN / CARBON DIOXIDE / CHLORIDE / CHOLESTEROL / CREATINE PHOSPHOKINASE / CREATININE / GLUCOSE / LACTATE DEHYDROGENASE / LIPASE / PHOSPHORUS / POTASSIUM / SODIUM / TOTAL BILIRUBIN / TOTAL PROTEIN / URIC ACID: tissue Plasma
[1] = 50 mg/kg, 120 h, dose level Low, time 5 day
[2] = 1500 mg/kg, 72 h, dose level High, time 3 day
[3] = 1500 mg/kg, 120 h, dose level High, time 5 day

Structure (SMILES): Cc1ncc([N+](=O)[O-])n1CCO [METRONIDAZOLE]
- ABSOLUTE BASOPHIL [1]: 0 CELLS/uL
- ABSOLUTE EOSINOPHIL [1]: 0 CELLS/uL
- ABSOLUTE LYMPHOCYTE [1]: 11707 CELLS/uL
- ABSOLUTE MONOCYTE [1]: 0 CELLS/uL
- ABSOLUTE SEGMENTED NEUTROPHIL [1]: 459.67 CELLS/uL
- BASOPHIL [1]: 0%
- EOSINOPHIL [1]: 0%
- ERYTHROCYTE COUNT [1]: 6 x10E6/uL
- HEMATOCRIT [1]: 36.43%
- HEMOGLOBIN [1]: 13.8 G/DL
- LEUKOCYTE COUNT [1]: 12.17 x10E3/uL
- LYMPHOCYTE [1]: 96.33%
- MEAN CORPUSCULAR HEMOGLOBIN [1]: 23.03 pg
- MEAN CORPUSCULAR HEMOGLOBIN CONCENTRATION [1]: 37.87 G/DL
- MEAN CORPUSCULAR VOLUME [1]: 60.9 fL
- MONOCYTE [1]: 0%
- NEUTROPHIL [1]: 3.67%
- NUCLEATED RED BLOOD CELLS [1]: 0.33 /100WBC
- PLATELET COUNT [1]: 986 x10E3/uL
- ALANINE AMINOTRANSFERASE [1]: 61 u/L
- ALBUMIN [1]: 4.07 G/DL
- ALKALINE PHOSPHATASE [1]: 338 u/L
- ASPARTATE AMINOTRANSFERASE [1]: 108.33 u/L
- BLOOD UREA NITROGEN [1]: 13.67 mg/dL
- CARBON DIOXIDE [1]: 30.67 mmol/L
- CHLORIDE [1]: 100.33 MEQ/L
- CHOLESTEROL [1]: 67 mg/dL
- CREATINE PHOSPHOKINASE [1]: 1022 u/L
- CREATININE [1]: 0.16 mg/dL
- GLUCOSE [1]: 151.33 mg/dL
- LACTATE DEHYDROGENASE [1]: 207.67 u/L
- LIPASE [1]: 10.67 u/L
- PHOSPHORUS [1]: 11.73 mg/dL
- POTASSIUM [1]: 5.65 MEQ/L
- SODIUM [1]: 145.1 MEQ/L
- TOTAL BILIRUBIN [1]: 0.13 mg/dL
- TOTAL PROTEIN [1]: 6.17 G/DL
- URIC ACID [1]: 1 mg/dL
- ABSOLUTE BASOPHIL [2]: 0 CELLS/uL
- ABSOLUTE EOSINOPHIL [2]: 49.33 CELLS/uL
- ABSOLUTE LYMPHOCYTE [2]: 11170.67 CELLS/uL
- ABSOLUTE MONOCYTE [2]: 122.67 CELLS/uL
- ABSOLUTE SEGMENTED NEUTROPHIL [2]: 924 CELLS/uL
- BASOPHIL [2]: 0%
- EOSINOPHIL [2]: 0.33%
- ERYTHROCYTE COUNT [2]: 5.75 x10E6/uL
- HEMATOCRIT [2]: 36.7%
- HEMOGLOBIN [2]: 14.07 G/DL
- LEUKOCYTE COUNT [2]: 12.27 x10E3/uL
- LYMPHOCYTE [2]: 91.33%
- MEAN CORPUSCULAR HEMOGLOBIN [2]: 24.47 pg
- MEAN CORPUSCULAR HEMOGLOBIN CONCENTRATION [2]: 38.33 G/DL
- MEAN CORPUSCULAR VOLUME [2]: 63.8 fL
- MONOCYTE [2]: 1%
- NEUTROPHIL [2]: 7.33%
- NUCLEATED RED BLOOD CELLS [2]: 0 /100WBC
- PLATELET COUNT [2]: 1295.67 x10E3/uL
- ALANINE AMINOTRANSFERASE [2]: 71 u/L
- ALBUMIN [2]: 4.03 G/DL
- ALKALINE PHOSPHATASE [2]: 332 u/L
- ASPARTATE AMINOTRANSFERASE [2]: 84.33 u/L
- BLOOD UREA NITROGEN [2]: 15 mg/dL
- CARBON DIOXIDE [2]: 32.33 mmol/L
- CHLORIDE [2]: 102 MEQ/L
- CHOLESTEROL [2]: 87 mg/dL
- CREATINE PHOSPHOKINASE [2]: 331.67 u/L
- CREATININE [2]: 0.23 mg/dL
- GLUCOSE [2]: 134.67 mg/dL
- LACTATE DEHYDROGENASE [2]: 176.33 u/L
- LIPASE [2]: 12 u/L
- PHOSPHORUS [2]: 10.83 mg/dL
- POTASSIUM [2]: 5.73 MEQ/L
- SODIUM [2]: 146.4 MEQ/L
- TOTAL BILIRUBIN [2]: 0.1 mg/dL
- TOTAL PROTEIN [2]: 5.9 G/DL
- URIC ACID [2]: 0.4 mg/dL
- ABSOLUTE BASOPHIL [3]: 0 CELLS/uL
- ABSOLUTE EOSINOPHIL [3]: 0 CELLS/uL
- ABSOLUTE LYMPHOCYTE [3]: 10466.67 CELLS/uL
- ABSOLUTE MONOCYTE [3]: 94 CELLS/uL
- ABSOLUTE SEGMENTED NEUTROPHIL [3]: 906 CELLS/uL
- BASOPHIL [3]: 0%
- EOSINOPHIL [3]: 0%
- ERYTHROCYTE COUNT [3]: 6.09 x10E6/uL
- HEMATOCRIT [3]: 39.27%
- HEMOGLOBIN [3]: 15.2 G/DL
- LEUKOCYTE COUNT [3]: 11.47 x10E3/uL
- LYMPHOCYTE [3]: 91.67%
- MEAN CORPUSCULAR HEMOGLOBIN [3]: 25.03 pg
- MEAN CORPUSCULAR HEMOGLOBIN CONCENTRATION [3]: 38.73 G/DL
- MEAN CORPUSCULAR VOLUME [3]: 64.6 fL
- MONOCYTE [3]: 1%
- NEUTROPHIL [3]: 7.33%
- NUCLEATED RED BLOOD CELLS [3]: 0 /100WBC
- PLATELET COUNT [3]: 962 x10E3/uL
- ALANINE AMINOTRANSFERASE [3]: 79.33 u/L
- ALBUMIN [3]: 4.3 G/DL
- ALKALINE PHOSPHATASE [3]: 365 u/L
- ASPARTATE AMINOTRANSFERASE [3]: 91.67 u/L
- BLOOD UREA NITROGEN [3]: 17.67 mg/dL
- CARBON DIOXIDE [3]: 32.33 mmol/L
- CHLORIDE [3]: 101.67 MEQ/L
- CHOLESTEROL [3]: 66.33 mg/dL
- CREATINE PHOSPHOKINASE [3]: 679.67 u/L
- CREATININE [3]: 0.18 mg/dL
- GLUCOSE [3]: 138.33 mg/dL
- LACTATE DEHYDROGENASE [3]: 145.33 u/L
- LIPASE [3]: 11 u/L
- PHOSPHORUS [3]: 11.17 mg/dL
- POTASSIUM [3]: 6.28 MEQ/L
- SODIUM [3]: 147.87 MEQ/L
- TOTAL BILIRUBIN [3]: 0.13 mg/dL
- TOTAL PROTEIN [3]: 6.17 G/DL
- URIC ACID [3]: 0.83 mg/dL

Source: ChEMBL document CHEMBL3885881, “DrugMatrix”
